# Results taken from ChEMBL document CHEMBL3045542, “A quantitative structure-activity relationship study of herbicidal analogues of alpha-hydroxy-substituted 3-benzylidenepyrrolidene-2,4-diones” (2006).
# Legend:
# Format in all cases: functional
# Echinochloa crus-galli [1] = assay: Herbicidal activity against Echinochloa crus-galli (barnyard grass) assessed as inhibition of plant growth at 10 ug/mL by cup test
# Echinochloa crus-galli [2] = assay: Herbicidal activity against Echinochloa crus-galli (barnyard grass) assessed as inhibition of plant growth at 187.5 g/ha applied as pre-emergence treatment; details: for inhibition at 187.5 g/ha: Echinochloa crus-galli, pre-emergence
# Echinochloa crus-galli [3] = assay: Herbicidal activity against Echinochloa crus-galli (barnyard grass) assessed as inhibition of plant growth at 750 g/ha applied as pre-emergence treatment; details: for inhibition at 750 g/ha: Echinochloa crus-galli, pre-emergence
# Echinochloa crus-galli [4] = assay: Herbicidal activity against Echinochloa crus-galli (barnyard grass) assessed as inhibition of plant growth at 93.75 g/ha applied as pre-emergence treatment; details: for inhibition at 93.75 g/ha: Echinochloa crus-galli, pre-emergence
# Echinochloa crus-galli [5] = assay: Herbicidal activity against Echinochloa crus-galli (barnyard grass) assessed as inhibition of plant growth at 375 g/ha applied as pre-emergence treatment; details: for inhibition at 375 g/ha: Echinochloa crus-galli, pre-emergence
# Digitaria sanguinalis [6] = assay: Herbicidal activity against Digitaria sanguinalis (hairy crabgrass) assessed as inhibition of plant growth at 187.5 g/ha applied as pre-emergence treatment; details: for inhibition at 187.5 g/ha: Digitaria sanguinalis, pre-emergence
# Digitaria sanguinalis [7] = assay: Herbicidal activity against Digitaria sanguinalis (hairy crabgrass) assessed as inhibition of plant growth at 93.75 g/ha applied as pre-emergence treatment; details: for inhibition at 93.75 g/ha: Digitaria sanguinalis, pre-emergence
# Digitaria sanguinalis [8] = assay: Herbicidal activity against Digitaria sanguinalis (hairy crabgrass) assessed as inhibition of plant growth at 750 g/ha applied as pre-emergence treatment; details: for inhibition at 750 g/ha: Digitaria sanguinalis, pre-emergence
# Digitaria sanguinalis [9] = assay: Herbicidal activity against Digitaria sanguinalis (hairy crabgrass) assessed as inhibition of plant growth at 375 g/ha applied as pre-emergence treatment; details: for inhibition at 375 g/ha: Digitaria sanguinalis, pre-emergence
# [10] = tested as the Zn salt or complex
structure (smiles),measurement,setting,value
Cc1cccc(/C(O)=C2\C(=O)CN(C(C)(C)C)C2=O)c1,inhibition at 10 µg/mL,Echinochloa crus-galli [1],5%
CC(C)Oc1cccc(/C(O)=C2\C(=O)CN(C(C)C)C2=O)c1,inhibition at 10 µg/mL,Echinochloa crus-galli [1],9%
COc1ccc(/C(O)=C2\C(=O)CN(C(C)(C)C)C2=O)cc1,inhibition at 187.5 g/ha,Echinochloa crus-galli [2],0%
same,inhibition at 10 µg/mL,Echinochloa crus-galli [1],10%
same,inhibition at 750 g/ha,Echinochloa crus-galli [3],14%
same,inhibition at 93.75 g/ha,Echinochloa crus-galli [4],0%
same,inhibition at 375 g/ha,Echinochloa crus-galli [5],0%
COc1ccccc1/C(O)=C1\C(=O)CN(C(C)C)C1=O,inhibition at 187.5 g/ha,Echinochloa crus-galli [2],0%
same,inhibition at 10 µg/mL,Echinochloa crus-galli [1],77%
same,inhibition at 750 g/ha,Echinochloa crus-galli [3],73%
same,inhibition at 93.75 g/ha,Echinochloa crus-galli [4],0%
same,inhibition at 375 g/ha,Echinochloa crus-galli [5],28%
O=C1CN(C2CC2)C(=O)/C1=C(\O)c1cccc(Oc2ccccc2)c1,inhibition at 10 µg/mL,Echinochloa crus-galli [1],58%
COc1ccc(/C(O)=C2\C(=O)C(C)N(C(C)C)C2=O)c(OC)c1 (stereo not drawn),inhibition at 10 µg/mL,Echinochloa crus-galli [1],25%
COc1ccc(/C([O-])=C2\C(=O)CN(C(C)C)C2=O)c(OC)c1.[Na+],inhibition (INH),Echinochloa crus-galli [2],100%
same,inhibition (INH),Echinochloa crus-galli [3],100%
same,inhibition (INH),Echinochloa crus-galli [4],73%
same,inhibition (INH),Digitaria sanguinalis [6],90%
same,inhibition (INH),Echinochloa crus-galli [5],100%
same,inhibition (INH),Digitaria sanguinalis [7],10%
same,inhibition (INH),Digitaria sanguinalis [8],100%
same,inhibition (INH),Digitaria sanguinalis [9],100%
CC(C)N1CC(=O)/C(=C(/O)c2ccccc2Cl)C1=O,inhibition at 10 µg/mL,Echinochloa crus-galli [1],51%
COc1ccc(C(=O)C2=C(O)N(C(C)C)CCC2=O)cc1,inhibition at 10 µg/mL,Echinochloa crus-galli [1],0%
Cc1ccccc1/C(O)=C1\C(=O)CN(C(C)(C)C)C1=O,inhibition at 10 µg/mL,Echinochloa crus-galli [1],64%
CCCc1ccc(/C(O)=C2\C(=O)CN(C(C)C)C2=O)cc1,inhibition at 10 µg/mL,Echinochloa crus-galli [1],27%
C=CCOc1ccc(/C(O)=C2\C(=O)CN(C(C)C)C2=O)c(OC)c1,inhibition at 10 µg/mL,Echinochloa crus-galli [1],77%
CCC(C)N1CC(=O)/C(=C(/O)c2cc(C)cc(C)c2)C1=O (stereo not drawn),inhibition at 10 µg/mL,Echinochloa crus-galli [1],9%
CCCCOc1ccc(/C(O)=C2\C(=O)CN(C(C)CC)C2=O)cc1 (stereo not drawn),inhibition at 10 µg/mL,Echinochloa crus-galli [1],28%
COc1ccc(/C(O)=C2\C(=O)CN(Cc3ccccc3)C2=O)cc1,inhibition at 10 µg/mL,Echinochloa crus-galli [1],14%
COc1ccccc1/C(O)=C1\C(=O)CN(C(C)(C)C)C1=O,inhibition at 10 µg/mL,Echinochloa crus-galli [1],75%
CCCCOc1ccc(/C(O)=C2\C(=O)CN(C(C)C)C2=O)cc1,inhibition at 10 µg/mL,Echinochloa crus-galli [1],21%
CCC(C)N1CC(=O)/C(=C(/O)c2ccc(OC)cc2)C1=O (stereo not drawn),inhibition at 10 µg/mL,Echinochloa crus-galli [1],64%
O=C1CN(Cc2ccccc2)C(=O)/C1=C(\O)c1ccccc1,inhibition at 187.5 g/ha,Echinochloa crus-galli [2],0%
same,inhibition at 10 µg/mL,Echinochloa crus-galli [1],2%
same,inhibition at 750 g/ha,Echinochloa crus-galli [3],0%
same,inhibition at 93.75 g/ha,Echinochloa crus-galli [4],0%
same,inhibition at 375 g/ha,Echinochloa crus-galli [5],0%
Cc1ccc(/C(O)=C2\C(=O)CN(C(C)(C)C)C2=O)cc1,inhibition at 10 µg/mL,Echinochloa crus-galli [1],36%
CCC(C)N1CC(=O)/C(=C(/O)c2ccc(OC(C)C)cc2OC)C1=O (stereo not drawn),inhibition at 10 µg/mL,Echinochloa crus-galli [1],33%
CCOc1ccc(/C(O)=C2\C(=O)CN(C3CC3)C2=O)cc1,inhibition at 10 µg/mL,Echinochloa crus-galli [1],78%
CCOc1ccc(/C(O)=C2\C(=O)CN(C(C)C)C2=O)c(OC)c1,inhibition at 10 µg/mL,Echinochloa crus-galli [1],69%
CC(C)N1CC(=O)/C(=C(/O)c2ccc(Cl)cc2)C1=O,inhibition at 10 µg/mL,Echinochloa crus-galli [1],25%
C=CCOc1ccc(/C(O)=C2\C(=O)C(C)N(C(C)C)C2=O)c(OC)c1 (stereo not drawn),inhibition at 10 µg/mL,Echinochloa crus-galli [1],44%
CCOc1ccc(/C([O-])=C2\C(=O)CN(C(C)C)C2=O)cc1.CCOc1ccc(/C([O-])=C2\C(=O)CN(C(C)C)C2=O)cc1.[Zn+2],inhibition at 187.5 g/ha,Echinochloa crus-galli [2]; [10],96%
same,inhibition at 750 g/ha,Echinochloa crus-galli [3]; [10],100%
same,inhibition (INH),Echinochloa crus-galli [4],57%
same,inhibition at 187.5 g/ha,Digitaria sanguinalis [6]; [10],64%
same,inhibition at 375 g/ha,Echinochloa crus-galli [5]; [10],100%
same,inhibition at 93.75 g/ha,Digitaria sanguinalis [7]; [10],8%
same,inhibition at 750 g/ha,Digitaria sanguinalis [8]; [10],100%
same,inhibition (INH),Digitaria sanguinalis [9],100%
CCC(C)N1CC(=O)/C(=C(/O)c2cccc(Oc3ccccc3)c2)C1=O (stereo not drawn),inhibition at 10 µg/mL,Echinochloa crus-galli [1],58%
COc1ccc(/C(O)=C2\C(=O)CN(C3CC3)C2=O)c(OC)c1,inhibition at 10 µg/mL,Echinochloa crus-galli [1],78%
COc1ccc(C/C(O)=C2/C(=O)CN(C(C)C)C2=O)cc1,inhibition at 10 µg/mL,Echinochloa crus-galli [1],5%
COc1ccc(/C([O-])=C2\C(=O)CN(C(C)C)C2=O)c(OC)c1.COc1ccc(/C([O-])=C2\C(=O)CN(C(C)C)C2=O)c(OC)c1.[Zn+2],inhibition (INH),Echinochloa crus-galli [2],85%
same,inhibition at 750 g/ha,Echinochloa crus-galli [3]; [10],100%
same,inhibition (INH),Echinochloa crus-galli [4],72%
same,inhibition at 187.5 g/ha,Digitaria sanguinalis [6]; [10],82%
same,inhibition at 375 g/ha,Echinochloa crus-galli [5]; [10],100%
same,inhibition at 93.75 g/ha,Digitaria sanguinalis [7]; [10],15%
same,inhibition at 750 g/ha,Digitaria sanguinalis [8]; [10],100%
same,inhibition at 375 g/ha,Digitaria sanguinalis [9]; [10],100%
COc1ccc(C(=O)C2=C(O)N(C(C)C)CCC2=O)c(OC)c1,inhibition at 10 µg/mL,Echinochloa crus-galli [1],6%
CCCCOc1cccc(/C(O)=C2\C(=O)CN(C(C)C)C2=O)c1,inhibition at 10 µg/mL,Echinochloa crus-galli [1],47%
Cc1cccc(/C(O)=C2\C(=O)CN(C)C2=O)c1,inhibition at 10 µg/mL,Echinochloa crus-galli [1],25%
CC(C)N1CC(=O)/C(=C(/O)c2ccc(OCc3ccccc3)cc2)C1=O,inhibition at 10 µg/mL,Echinochloa crus-galli [1],39%
COc1cc(OC(C)C)ccc1/C(O)=C1\C(=O)C(C)N(C(C)C)C1=O (stereo not drawn),inhibition at 10 µg/mL,Echinochloa crus-galli [1],9%
CCC(C)N1CC(=O)/C(=C(/O)c2ccc(OC)c(OC)c2)C1=O (stereo not drawn),inhibition at 10 µg/mL,Echinochloa crus-galli [1],9%
CCOc1ccc(/C(O)=C2\C(=O)CN(C(C)CC)C2=O)c(OC)c1 (stereo not drawn),inhibition at 10 µg/mL,Echinochloa crus-galli [1],68%
CC(C)c1ccc(/C(O)=C2\C(=O)CN(C(C)(C)C)C2=O)cc1,inhibition at 10 µg/mL,Echinochloa crus-galli [1],10%
CCOc1ccc(/C(O)=C2\C(=O)C(C)N(C(C)C)C2=O)c(OC)c1 (stereo not drawn),inhibition at 10 µg/mL,Echinochloa crus-galli [1],32%
CC(C)N1CC(=O)/C(=C(/O)c2cccc(Oc3ccccc3)c2)C1=O,inhibition at 10 µg/mL,Echinochloa crus-galli [1],57%
CCCc1ccc(/C(O)=C2\C(=O)CN(C(C)CC)C2=O)cc1 (stereo not drawn),inhibition at 10 µg/mL,Echinochloa crus-galli [1],18%
Cc1cccc(/C(O)=C2\C(=O)CN(Cc3ccccc3)C2=O)c1,inhibition at 10 µg/mL,Echinochloa crus-galli [1],12%
Cc1ccc(/C(O)=C2\C(=O)CN(Cc3ccccc3)C2=O)cc1,inhibition at 10 µg/mL,Echinochloa crus-galli [1],8%
Cc1cc(C)cc(/C(O)=C2\C(=O)CN(C(C)C)C2=O)c1,inhibition at 10 µg/mL,Echinochloa crus-galli [1],22%
CC(C)Oc1ccc(/C(O)=C2\C(=O)CN(C(C)C)C2=O)cc1,inhibition at 10 µg/mL,Echinochloa crus-galli [1],79%
CCC(C)N1CC(=O)/C(=C(/O)c2cc(OC)c(OC)cc2OC)C1=O (stereo not drawn),inhibition at 10 µg/mL,Echinochloa crus-galli [1],18%
CN1CC(=O)/C(=C(/O)c2cccc(Oc3ccccc3)c2)C1=O,inhibition at 10 µg/mL,Echinochloa crus-galli [1],53%
Cc1cccc(/C(O)=C2\C(=O)CN(C(C)C)C2=O)c1,inhibition at 10 µg/mL,Echinochloa crus-galli [1],49%
CCOc1ccc(C(=O)C2=C(O)N(C(C)C)CCC2=O)cc1,inhibition at 10 µg/mL,Echinochloa crus-galli [1],15%
COc1ccc(/C(O)=C2\C(=O)C(C)N(C(C)C)C2=O)cc1 (stereo not drawn),inhibition at 10 µg/mL,Echinochloa crus-galli [1],4%
CS(=O)(=O)c1ccc(C(=O)C2C(=O)CCCC2=O)c(Cl)c1 [SULCOTRIONE],inhibition at 187.5 g/ha,Echinochloa crus-galli [2],93%
same,inhibition at 750 g/ha,Echinochloa crus-galli [3],100%
same,inhibition at 93.75 g/ha,Echinochloa crus-galli [4],70%
same,inhibition at 187.5 g/ha,Digitaria sanguinalis [6],100%
same,inhibition at 375 g/ha,Echinochloa crus-galli [5],100%
same,inhibition at 93.75 g/ha,Digitaria sanguinalis [7],100%
same,inhibition at 750 g/ha,Digitaria sanguinalis [8],100%
same,inhibition at 375 g/ha,Digitaria sanguinalis [9],100%
CCCOc1ccc(/C(O)=C2\C(=O)CN(C(C)C)C2=O)cc1,inhibition at 10 µg/mL,Echinochloa crus-galli [1],73%
CCOc1ccc(/C(O)=C2\C(=O)CN(C(C)C)C2=O)c(OCC)c1,inhibition at 10 µg/mL,Echinochloa crus-galli [1],26%
COc1ccc(/C(O)=C2\C(=O)CN(C(C)C)C2=O)cc1,inhibition at 10 µg/mL,Echinochloa crus-galli [1],80%
COc1ccccc1/C(O)=C1\C(=O)CN(Cc2ccccc2)C1=O,inhibition at 10 µg/mL,Echinochloa crus-galli [1],14%
COc1cc(OC(C)C)ccc1/C(O)=C1\C(=O)CN(C(C)C)C1=O,inhibition at 10 µg/mL,Echinochloa crus-galli [1],57%
CC(C)N1CC(=O)/C(=C(/O)c2ccc(C(C)(C)C)cc2)C1=O,inhibition at 10 µg/mL,Echinochloa crus-galli [1],28%
CC(C)(C)c1ccc(/C(O)=C2\C(=O)CN(C(C)(C)C)C2=O)cc1,inhibition at 10 µg/mL,Echinochloa crus-galli [1],4%
Cc1ccccc1/C(O)=C1\C(=O)CN(Cc2ccccc2)C1=O,inhibition at 10 µg/mL,Echinochloa crus-galli [1],15%
CCCCCc1ccc(/C(O)=C2\C(=O)CN(C3CC3)C2=O)cc1,inhibition at 10 µg/mL,Echinochloa crus-galli [1],5%
CCCCOc1cccc(/C(O)=C2\C(=O)CN(C(C)CC)C2=O)c1 (stereo not drawn),inhibition at 10 µg/mL,Echinochloa crus-galli [1],32%
CCC(C)N1CC(=O)/C(=C(/O)c2ccc(OC(C)C)cc2)C1=O (stereo not drawn),inhibition at 10 µg/mL,Echinochloa crus-galli [1],46%
COc1ccc(/C(O)=C2\C(=O)CN(C3CC3)C2=O)cc1,inhibition at 10 µg/mL,Echinochloa crus-galli [1],62%
Cc1ccccc1/C(O)=C1\C(=O)CN(C(C)C)C1=O,inhibition at 10 µg/mL,Echinochloa crus-galli [1],77%
CCCCCc1ccc(/C(O)=C2\C(=O)CN(C)C2=O)cc1,inhibition at 10 µg/mL,Echinochloa crus-galli [1],16%
Cc1ccc(/C(O)=C2\C(=O)CN(C(C)C)C2=O)c(C)c1,inhibition at 10 µg/mL,Echinochloa crus-galli [1],74%
CCCCCc1ccc(/C(O)=C2\C(=O)CN(C(C)C)C2=O)cc1,inhibition at 10 µg/mL,Echinochloa crus-galli [1],6%
Cc1ccc(/C(O)=C2\C(=O)CN(C(C)C)C2=O)cc1,inhibition at 10 µg/mL,Echinochloa crus-galli [1],77%
